# Test results reported in ChEMBL document CHEMBL5252611, “2- and 3-Fluoro-3-deaza-1',6'-isoneplanocin: Synthesis and antiviral properties (including Ebola and Marburg)” (Bioorg Med Chem Lett, 2023).
# Activity calls are given as the source filed them. The calls are words filed in the database; no cut-off is given here.
# Legend:
# [1] = Selectivity index, ratio of CC50 for cytotoxicity against African green monkey Vero cells infected with Marburgvirus Angola to EC50 for antiviral activity against Marburgvirus Angola infected in African green monkey Vero cells; assay type: toxicity, cell-based; conditions: read-out: Ratio CC50/EC50
# [2] = system: Marburgvirus; experiment: Antiviral activity against Marburgvirus Angola infected in African green monkey Vero cells; assay type: functional, organism-based; conditions: Orthomarburgvirus
# [3] = Cytotoxicity against African green monkey Vero cells infected with Zaire ebolavirus; assay type: toxicity, cell-based; conditions: chlorocebus sabaeus
# [4] = Cytotoxicity against African green monkey Vero cells infected with Marburgvirus Angola; assay type: toxicity, cell-based; conditions: chlorocebus sabaeus
# [5] = system: Zaire ebolavirus; experiment: Antiviral activity against Zaire ebolavirus infected in African green monkey Vero cells; assay type: functional, organism-based
# [6] = Selectivity index, ratio of CC50 for cytotoxicity against African green monkey Vero cells infected with Zaire ebolavirus to EC50 for antiviral activity against Zaire ebolavirus infected in African green monkey Vero cells; assay type: toxicity, cell-based; conditions: read-out: Ratio CC50/EC50
# [7] = system: Influenza B virus; experiment: Antiviral activity against influenza B virus; assay type: functional, organism-based
# [8] = system: Human betaherpesvirus 5; experiment: Antiviral activity against Human betaherpesvirus 5; assay type: functional, organism-based
# [9] = system: Tacaribe virus; experiment: Antiviral activity against Tacaribe virus; assay type: functional, organism-based; conditions: Mammarenavirus tacaribeense
# [10] = system: Rift Valley fever virus; experiment: Antiviral activity against Rift Valley fever virus; assay type: functional, organism-based
# [11] = system: Influenza A virus; experiment: Antiviral activity against influenza A virus H5N1; assay type: functional, organism-based
# [12] = Cytotoxicity against African green monkey Vero 76 cells infected with Measles virus CC by neutral red dye based analysis; assay type: toxicity, cell-based; conditions: chlorocebus sabaeus
# [13] = system: Human betaherpesvirus 5; experiment: Antiviral activity against Human betaherpesvirus 5 AD 169 infected in HFF cells; assay type: functional, organism-based
# [14] = Selectivity index, ratio of CC50 for cytotoxicity against African green monkey Vero 76 cells infected with Measles virus CC by visual analysis to EC50 for antiviral activity against Measles virus CC infected in African green monkey Vero 76 cells by visual analysis; assay type: toxicity, cell-based; conditions: read-out: Ratio CC50/EC50
# [15] = Cytotoxicity against African green monkey Vero cells infected with Tacaribe virus TRVL11573 by visual analysis; assay type: toxicity, cell-based; conditions: chlorocebus sabaeus
# [16] = Selectivity index, ratio of CC50 for cytotoxicity against African green monkey Vero cells infected with Tacaribe virus TRVL11573 by neutral red dye based analysis to EC50 for antiviral activity against Tacaribe virus TRVL11573 infected in African green monkey Vero cells by neutral red dye based analysis; assay type: toxicity, cell-based; conditions: read-out: Ratio CC50/EC50
# [17] = Cytotoxicity against African green monkey Vero cells infected in Pichinde virus AN 4763 by neutral red dye based analysis; assay type: toxicity, cell-based; conditions: chlorocebus sabaeus, Vero cells infected with Pichinde virus AN 4763
# [18] = Selectivity index, ratio of CC50 for cytotoxicity against human HepG2.2.15 cells to EC50 for antiviral activity against HBV ayw1 infected in human HepG2.2.15 cells; assay type: toxicity, cell-based; conditions: read-out: Ratio CC50/EC50
# [19] = system: Rift Valley fever virus; experiment: Antiviral activity against Rift Valley fever virus MP-12 infected in African green monkey Vero 76 cells by visual analysis; assay type: functional, organism-based; conditions: MP-12, Vero 76
# [20] = system: Tacaribe virus; experiment: Antiviral activity against Tacaribe virus TRVL11573 infected in African green monkey Vero cells by visual analysis; assay type: functional, organism-based; conditions: Mammarenavirus tacaribeense
# [21] = Selectivity index, ratio of CC50 for cytotoxicity against African green monkey Vero 76 cells by neutral red dye based analysis to EC50 for antiviral activity against Measles virus CC infected in African green monkey Vero 76 cells by neutral red dye based analysis; assay type: toxicity, cell-based; conditions: read-out: Ratio CC50/EC50
# [22] = system: dengue virus type 2; experiment: Antiviral activity against Dengue virus 2 New Guinea infected in human Huh-7 cells; assay type: functional, organism-based
# [23] = system: Pichinde virus; experiment: Antiviral activity against Pichinde virus AN 4763 infected in African green monkey Vero cells by neutral red dye based analysis; assay type: functional, organism-based; conditions: AN 4763, Vero
# [24] = system: Japanese encephalitis virus; experiment: Antiviral activity against Japanese encephalitis virus SA 14 infected in African green monkey Vero 76 cells; assay type: functional, organism-based
# [25] = system: Venezuelan equine encephalitis virus; experiment: Antiviral activity against Venezuelan equine encephalitis virus TC-83 infected in African green monkey Vero 76 cells; assay type: functional, organism-based
# [26] = Cytotoxicity against African green monkey Vero 76 cells infected with Rift Valley fever virus MP-12 by visual analysis; assay type: toxicity, cell-based; conditions: chlorocebus sabaeus
# [27] = system: Measles morbillivirus; experiment: Antiviral activity against Measles virus CC infected in African green monkey Vero 76 cells by neutral red dye based analysis; assay type: functional, organism-based
# [28] = system: Tacaribe virus; experiment: Antiviral activity against Tacaribe virus TRVL11573 infected in African green monkey Vero cells by neutral red dye based analysis; assay type: functional, organism-based; conditions: Mammarenavirus tacaribeense
# [29] = system: Middle East respiratory syndrome-related coronavirus; experiment: Antiviral activity against Middle East respiratory syndrome-related coronavirus EMC infected in African green monkey Vero 76 cells; assay type: functional, organism-based
# [30] = Cytotoxicity against African green monkey Vero 76 cells infected with Rift Valley fever virus MP-12 by neutral red dye based analysis; assay type: toxicity, cell-based; conditions: chlorocebus sabaeus
# [31] = system: Pichinde virus; experiment: Antiviral activity against Pichinde virus AN 4763 infected in African green monkey Vero cells by visual analysis; assay type: functional, organism-based; conditions: AN 4763, Vero
# [32] = system: Hepatitis B virus; experiment: Antiviral activity against HBV ayw1 infected in human HepG2.2.15 cells; assay type: functional, organism-based; conditions: ayw1, HepG2.2.15
# [33] = Selectivity index, ratio of CC50 for cytotoxicity against African green monkey Vero cells infected with Tacaribe virus TRVL11573 by visual analysis to EC50 for antiviral activity against Tacaribe virus TRVL11573 infected in African green monkey Vero cells by visual analysis; assay type: toxicity, cell-based; conditions: read-out: Ratio CC50/EC50
# [34] = Cytotoxicity against human HepG2.2.15 cells; assay type: toxicity, cell-based, HepG2 2.2.15
# [35] = system: Rift Valley fever virus; experiment: Antiviral activity against Rift Valley fever virus MP-12 infected in African green monkey Vero 76 cells by neutral red dye based analysis; assay type: functional, organism-based; conditions: MP-12, Vero 76
# [36] = Selectivity index, ratio of CC50 for cytotoxicity against African green monkey Vero cells infected with Pichinde virus AN 4763 by visual analysis to EC50 for antiviral activity against Pichinde virus AN 4763 infected in African green monkey Vero cells by visual analysis; assay type: toxicity, cell-based; conditions: read-out: Ratio CC50/EC50
# [37] = system: Tacaribe virus; experiment: Antiviral activity against Tacaribe virus TRVL11573 infected in African green monkey Vero cells; assay type: functional, organism-based; conditions: Mammarenavirus tacaribeense
# [38] = system: Punta Toro virus; experiment: Antiviral activity against Punta Toro virus Adames infected in African green monkey Vero 76 cells; assay type: functional, organism-based
# [39] = Cytotoxicity against African green monkey Vero cells infected with Tacaribe virus TRVL11573 by neutral red dye based analysis; assay type: toxicity, cell-based; conditions: chlorocebus sabaeus
# [40] = system: Rift Valley fever virus; experiment: Antiviral activity against Rift Valley fever virus MP-12 infected in African green monkey Vero 76 cells; assay type: functional, organism-based
# [41] = system: Chikungunya virus; experiment: Antiviral activity against Chikungunya virus S27 infected in African green monkey Vero 76 cells; assay type: functional, organism-based
# [42] = Cytotoxicity against African green monkey Vero 76 cells infected with Measles virus CC by visual analysis; assay type: toxicity, cell-based; conditions: chlorocebus sabaeus
# [43] = Cytotoxicity against African green monkey Vero cells infected in Pichinde virus AN 4763 by visual analysis; assay type: toxicity, cell-based; conditions: chlorocebus sabaeus, Vero cells infected with Pichinde virus AN 4763
# [44] = (§1) Selectivity index, ratio of CC50 for cytotoxicity against African green monkey Vero 76 cells infected with Rift Valley fever virus MP-12 by visual analysis to EC50 for antiviral activity against Rift Valley fever virus MP-12 infected in African green monkey Vero 76 cells by visual analysis; assay type: toxicity, cell-based; conditions: read-out: Ratio CC50/EC50
# [45] = as §1, with “neutral red dye based” for “visual”; assay type: toxicity, cell-based; conditions: read-out: Ratio CC50/EC50
# [46] = system: Lassa virus; experiment: Antiviral activity against Lassa virus Josiah infected in African green monkey Vero cells; assay type: functional, organism-based; conditions: Mammarenavirus lassaense
# [47] = Selectivity index, ratio of CC50 for cytotoxicity against African green monkey Vero cells infected with Pichinde virus AN 4763 by neutral red dye based analysis to EC50 for antiviral activity against Pichinde virus AN 4763 infected in African green monkey Vero cells by neutral red dye based analysis; assay type: toxicity, cell-based; conditions: read-out: Ratio CC50/EC50
# [48] = system: Measles morbillivirus; experiment: Antiviral activity against Measles virus CC infected in African green monkey Vero 76 cells by visual analysis; assay type: functional, organism-based
# [49] = system: Hepatitis B virus; experiment: Antiviral activity against HBV; assay type: functional, organism-based
# [50] = system: Yellow fever virus; experiment: Antiviral activity against Yellow fever virus; assay type: functional, organism-based
# [51] = system: Measles morbillivirus; experiment: Antiviral activity against Measles virus; assay type: functional, organism-based
compound,measurement,setting,value
NC(=O)c1nc(F)cnc1O [FAVIPIRAVIR],selectivity ratio,[1],> 6
same,EC50,[2],167 µM
same,CC50,[3],> 1 mM
same,CC50,[4],> 1 mM
same,EC50,[5],24 µM
same,selectivity ratio,[6],> 43
Nc1nc(F)cc2c1ncn2[C@@H]1C=C(CO)[C@@H](O)[C@H]1O,Activity,[7],Active
same,Activity,[8],Active
same,Activity,[9],Active
same,Activity,[10],Active
same,Activity,[11],Active
Nc1nc(F)cc2c1ncn2C1=C[C@H](CO)[C@@H](O)[C@H]1O,CC50,[12],36 µM
same,Activity,[13],inactive
same,selectivity ratio,[14],320
same,CC50,[15],75 µM
same,selectivity ratio,[16],5.8
same,CC50,[17],50 µM
same,selectivity ratio,[18],113
same,EC50,[19],22.1 µM
same,EC50,[20],10.7 µM
same,selectivity ratio,[21],91
same,Activity,[22],inactive
same,EC50,[23],2570 nM
same,Activity,[24],inactive
same,Activity,[25],inactive
same,CC50,[26],114 µM
same,EC50,[27],390 nM
same,EC50,[28],8.6 µM
same,Activity,[29],inactive
same,CC50,[30],132 µM
same,EC50,[31],3.32 µM
same,EC50,[32],430 nM
same,selectivity ratio,[33],7
same,CC50,[34],48.2 µM
same,EC50,[35],33.2 µM
same,selectivity ratio,[36],14
same,Activity,[37],inactive
same,Activity,[38],inactive
same,CC50,[39],50 µM
same,Activity,[40],inactive
same,Activity,[41],inactive
same,CC50,[42],114 µM
same,CC50,[43],46 µM
same,selectivity ratio,[44],5.2
same,selectivity ratio,[45],4
same,Activity,[46],inactive
same,selectivity ratio,[47],19
same,EC50,[48],360 nM
Nc1ncc(F)c2c1ncn2[C@@H]1C=C(CO)[C@@H](O)[C@H]1O,Activity,[49],Active
same,Activity,[8],Active
same,Activity,[50],Active
same,Activity,[51],Active
